# From ChEMBL document CHEMBL1201862, “PubChem BioAssay data set” (2004)
#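 Exposure lasted 48 hours, with cells grown in 96-well plates and compounds tested at five concentrations. GI50: concentration for 50% inhibition of growth.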 Active and inactive are the calls of the source. Rule as the data show it: active = GI50 up to about 1.1 µM and inactive = higher.
# Key:
# Experiment in all cases: NCI tumour cell line growth inhibition, 48 h
# [1] = test system: SF-268
# [2] = test system: HOP-92
# [3] = test system: CCRF-CEM
# [4] = test system: ACHN
# [5] = test system: SNB-75
# [6] = test system: NCI-H23
# [7] = test system: RPMI-8226
# [8] = test system: MOLT-4
# [9] = test system: EKVX
# [10] = test system: HT-29
# [11] = test system: SK-MEL-2
# [12] = test system: HOP-62
# [13] = test system: UACC-62
# [14] = test system: NCI-H522
# [15] = test system: A498
# [16] = test system: HCC 2998
# [17] = test system: HCT-116
# [18] = test system: SF-539
# [19] = test system: OVCAR-5
# [20] = test system: K562
Structure (SMILES),GI50 [1],GI50 [2],GI50 [3],GI50 [4],GI50 [5],GI50 [6],GI50 [7],GI50 [8],GI50 [9],GI50 [10],GI50 [11],GI50 [12],GI50 [13],GI50 [14],GI50 [15],GI50 [16],GI50 [17],GI50 [18],GI50 [19],GI50 [20]
CC(NNC(=O)c1cc[n+]([BH2-]C#N)cc1)c1ccc(Cl)c(Cl)c1 (centres undefined),39.6 µM (inactive),20.6 µM (inactive),37.1 µM (inactive),24.3 µM (inactive),34.8 µM (inactive),20.7 µM (inactive),33.5 µM (inactive),25.9 µM (inactive),30.1 µM (inactive),17.5 µM (inactive),32.2 µM (inactive),45 µM (inactive),29.7 µM (inactive),21.3 µM (inactive),33.7 µM (inactive),42.6 µM (inactive),32.1 µM (inactive),38.9 µM (inactive),41.3 µM (inactive),34.9 µM (inactive)
CC(=O)O[C@H]1CC[C@@]2(C)[C@H](CC[C@@H]3[C@@H]2CC[C@]2(C)[C@@H](c4ccc(=O)oc4)C[C@H]4O[C@]342)C1,0.348 µM (active),0.92 µM (active),0.392 µM (active),–,0.708 µM (active),0.327 µM (active),0.664 µM (active),0.237 µM (active),0.646 µM (active),1.77 µM (inactive),2.7 µM (inactive),0.521 µM (active),1.05 µM (active),0.327 µM (active),0.69 µM (active),1.33 µM (inactive),0.472 µM (active),0.348 µM (active),4.8 µM (inactive),0.646 µM (active)
COc1ccc(NC(=S)c2ccc([N+](=O)[O-])o2)cc1,2.04 µM (inactive),7.8 µM (inactive),2.14 µM (inactive),2.01 µM (inactive),3.19 µM (inactive),1.6 µM (inactive),1.19 µM (inactive),3.22 µM (inactive),2.92 µM (inactive),1.26 µM (inactive),1.69 µM (inactive),2.82 µM (inactive),1.77 µM (inactive),1.29 µM (inactive),15.6 µM (inactive),1.62 µM (inactive),1.52 µM (inactive),0.178 µM (active),3.02 µM (inactive),2.07 µM (inactive)
CC(=O)NC1=C(C)C(=O)c2c(nc3n2CCC3OC(=O)c2ccccc2)C1=O (centres undefined),2.21 µM (inactive),1.9 µM (inactive),1.19 µM (inactive),3.04 µM (inactive),3.58 µM (inactive),1.67 µM (inactive),2.04 µM (inactive),1.99 µM (inactive),1.63 µM (inactive),0.514 µM (active),1.7 µM (inactive),2.34 µM (inactive),1.92 µM (inactive),2.04 µM (inactive),12.7 µM (inactive),4.81 µM (inactive),1.94 µM (inactive),1.93 µM (inactive),1.99 µM (inactive),2.32 µM (inactive)
C[N+]1(C)CN(c2ccccc2)C2(CCN(CCCC(=O)c3cccs3)CC2)C1=O,> 100 µM (inactive),35.7 µM (inactive),68.4 µM (inactive),> 100 µM (inactive),27.7 µM (inactive),82.6 µM (inactive),47.3 µM (inactive),71.6 µM (inactive),> 100 µM (inactive),31.8 µM (inactive),> 100 µM (inactive),33.4 µM (inactive),> 100 µM (inactive),> 100 µM (inactive),> 100 µM (inactive),65.9 µM (inactive),58.9 µM (inactive),> 100 µM (inactive),85.1 µM (inactive),76 µM (inactive)
